Data on five molecules can be found in US8729107B2, “Pyridines for treating injured mammalian nerve tissue” (Purdue Research Foundation, priority 2002, dated 2014).

Data set [1] deals with injured guinea pig spinal cord white matter. The following applies: for concentration producing recovery of CAP conduction (effective/working concentration): drug added to bathing medium of central chamber; for increase in the amplitude of the recovered CAP: pre-drug recovered CAP normalized to 100%; for CAP amplitude after removal of the drug and wash: FIG. 8 electrical records, after washout; for CAP relative to pre-drug level: at the concentrations studied.

Data set [2] has as its system fast potassium channels (IA) in guinea pig DRG cells. Description: Whole cell patch-clamp recording of voltage-gated potassium currents (Itotal, fast component IA). Conditions: for effect on fast potassium current (initial peak of Itotal): 5 mM in bath solution; for peak (fast activated) potassium current amplitude after treatment: 5 mM in bath, command potential +30 mV. Type of data set: cell-based.

In data set [3] the test system is guinea pigs with compression injury to the mid-thoracic spinal cord. In kind it is in vivo. Conditions: for failures to respond: by 4 hours after gavage; for effective dosage producing improvement in the electrophysiological record: gavage; for Mean recovered EP (area beneath recovered EP normalized to pre-injury): gavage at 1 week post injury, Table 1; for tolerability of gavage: oral insertion in sedated guinea pigs. From the text:
“Somatosensory evoked potential testing (SSEP)” is a means of measuring ascending nerve impulse “traffic” in a “whole” animal. […] These volleys of evoked potentials are initiated by electrical stimulation of the tibial nerve of the hind leg of an animal, which induces ascending sensory volleys of nociceptive impulses to the contralateral sensory cortex of the brain in the intact animal. A severe spinal cord injury eliminates the ability of evoked potentials to cross the lesion and thus SSEPs are not recorded at the brain after lesioning. Quantitative evaluation of the recovery of SSEP conduction through the whole animal provides a more relevant indicator of the feasibility of these compounds to be useful in reversing behavioral loss after specific, localized, and standardized CNS injury. To eliminate the possibility that the failure to record SSEPs could be due to other factors, a control recording is carried out using the median nerve of the foreleg. Since this neural circuit is completely intact (that is—“above” the level of the spinal injury) normal SSEPs must be obtained after such “control” stimulation. FIG. 2 is a diagram of this testing protocol and provides examples of normal recordings in intact animals, the elimination of sensory impulses after a mid-thoracic spinal cord injury, and explains these issues in detail, as well as, emphasizing the importance of a median nerve control procedure.
During live animal testing using guinea pigs, novel pyridine derivatives of the instant invention were administered through a gastric tube to large adult guinea pigs which had previously received a standardized compression injury to their mid-thoracic spinal cords. The ability of these compounds to restore conduction in this second technique was determined by a quantitative evaluation of SSEPs. The following protocols and routes of administration were employed.
Prior to spinal cord injury, fully adult guinea pigs (Hardy strain, around 400 g) were lightly sedated with an intramuscular injection of Ketamine/Rompum and rendered immobile during the placement of stimulation and recording electrodes as illustrated in FIG. 2. A series of SSEP records were then taken subsequent to both tibial and median nerve stimulation in this normal animal. It should be noted here that all surgical procedures and physiological recordings were carried out on anesthetized animals. All animal studies were carried out under protocols approved by the University Animal Care and Use Committee, under strict adherence to University, State, and Federal guidelines for the use of animals in research.
Subsequently, a dorsal laminectomy surgical procedure was carried out exposing the dorsal (posterior) region of the mid-thoracic spinal cord within the vertebral column, the tough covering of the spinal cord (the dura) incised and removed, and the cord crushed by a standardized technique (constant displacement compression. Blight A R (1991a), Morphometric analysis of a model of spinal cord injury in guinea pigs, with behavioral evidence of delayed secondary pathology, J Neurol Sci 103:156-171; Borgens R B, Shi R, Bohnert D (2002), Behavioral recovery from spinal cord injury following delayed application of polyethylene glycol, J Exp Biol 205:1-12, both incorporated herein by reference.
[…] However, periodically physiological records were taken to monitor their status—and a final record at around 2 months post injury to confirm the chronic loss of ascending SSEP conduction through the mid-thoracic lesion.
After 8 weeks had elapsed and a “pre-drug application” electrical record obtained, the guinea pigs were lightly sedated and a test compound was administered directly into the stomach by a gastric tube (compounds were undissolved during introduction to the stomach, however, the gastric tube and any remnants of the compounds were flushed into the stomach by secondary introduction of less than 1 ml of distilled water). […]

The test system of data set [4] is delayed rectifier current Idr in guinea pig DRG cells. Description: Whole cell patch-clamp recording of isolated delayed rectifier current. The following applies: depolarization holding potential; data not shown. Type of data set: cell-based.
Data set [5] deals with paralyzed persons with spinal cord injury. Conditions: cited from earlier work.

The structures appear in SMILES notation. Read-outs that look alike come from different tables or passages of the source.

In the case of `Nc1ccncc1` [4-AP, 4-aminopyridine, reference compound], the “concentration producing recovery of CAP conduction (effective/working concentration)” value in data set [1] worked out at 100 µM. Besides, in data set [2], the “effect on fast potassium current (initial peak of Itotal)” value is “largely blocked” and the “peak (fast activated) potassium current amplitude after treatment” value is reported as 2,574.91±446.8 pA. In addition, in data set [3], the failures to respond result is on record as “Two of the ten animals failed to respond”, the “effective dosage producing improvement in the electrophysiological record” value stood at 0.47±0.04 mg/kg, the “Mean recovered EP (area beneath recovered EP normalized to pre-injury)” value amounted to 40.0 and the tolerability of gavage entry is on record as “uneventful”. Moreover, the “inhibition of Idr” value in data set [4] is reported as “did not significantly inhibit”. Further, in data set [5] (human patients), the “side effects at the concentrations required” value was “numerous unwanted side effects”. Further, in data set [5] (paralyzed persons), the “share of treated population with clinically meaningful recoveries of function” value is given as “about 30%”.

`Nc1ccncc1CO` [4-AP-3-MeOH, 4-aminopyridine-3-methanol]: the “increase of CAP conduction (not significant)” value in data set [1] (0.01 μM, stretch-injured cord, mean±SE, n=5) amounted to 6.44±3.8%; in data set [1] (1 mM, stretch-injured cord, mean±SE, n=5), 6.72±8.3%. The “increase of CAP conduction” value in data set [1] (0.1 μM, stretch-injured cord, mean±SE, n=7) was found to be 12.73±3.2%; in data set [1] (1 μM, stretch-injured cord, mean±SE, n=6) it was 11.27±4.2%; in data set [1] (10 μM, stretch-injured cord, mean±SE, n=11), 13.35±5.9%; in data set [1] (100 μM, stretch-injured cord, mean±SE, n=6), 21.51±4.5%. In data set [1] (100 μM, stimulus intensities 1.85 to 6.5 V), the “effect on CAP activation threshold” value is reported as “does not have a significant effect”. Also, the “CAP conduction across stimulus intensities” value in data set [1] (100 μM, stimulus intensities 1.85 to 6.5 V, data not shown) is on record as “increased CAP conduction at all stimuli intensity levels”. Moreover, the “suppression of CAP conduction” value in data set [1] (10 mM, stretch-injured cord, mean±SE, n=5) is on record as 18.48±8.1%. Besides, the “effect on axonal response to dual or multiple stimuli” value in data set [1] (injured spinal cord tissue) is on record as “does not have a significant effect”. The “effect on fast potassium current (initial peak of Itotal)” value in data set [2] was “inhibit the fast potassium currents”. The “peak (fast activated) potassium current amplitude after treatment” value in data set [2] was 2,434.20±543.4 pA. Moreover, the “effect on IA over step voltage commands” value in data set [2] (step voltage commands from −50 to 40 mV) is on record as “suppresses IA”. Also, the “inhibition of Idr” value in data set [4] is “did not significantly inhibit”.

For the molecule `CCOC(=O)Nc1ccncc1` [ethyl carbamate (2), N-(4-Pyridyl)Ethyl Carbamate], in data set [1], the indication of toxicity entry is “without any indication of toxicity”; the “CAP amplitude after removal of the drug and wash” value is on record as “fallen back to pre-drug levels”; the “CAP relative to pre-drug level” value is on record as “increase in CAP above the pre-drug level”; the “concentration producing recovery of CAP conduction (effective/working concentration)” value is given as “approximately 100 uM”. For the same molecule, in data set [1] (100 uM), the “enhancement of CAP conduction” value is “enhanced CAP conduction significantly”, the “recovery of CAP relative to 4-AP” value was “slightly lower recovery of CAP than 4-AP” and the “increase in the amplitude of the recovered CAP” value is reported as 18.6±8.7%. In data set [1] (FIG. 8 panel A, about 1/2 hour after addition), the “increase in the amplitude of the CAP in example electrical record” value is given as around 20%. Further, the “concentration producing recovery of CAP conduction (effective/working concentration)” value in data set [1] (listed as carbamate (2)) was 100 µM. Also, the “recovery of EP compared to 4-AP” value in data set [3] (1 week post injury) was “did not meet significance”. For the same molecule, in data set [3], the failures to respond entry is listed as “no failures to respond”, the “Mean recovered EP (area beneath recovered EP normalized to pre-injury)” value amounted to 41.5 and the tolerability of gavage entry is given as “uneventful”.

For the molecule `COC(=O)Nc1ccncc1` [methyl carbamate (3), N-(4-Pyridyl)Methyl Carbamate], in data set [1] (100 uM), the “enhancement of CAP conduction” value was “enhanced CAP conduction significantly” and the “increase in the amplitude of the recovered CAP” value turned out to be 30.6±11.7%. The “CAP amplitude after removal of the drug and wash” value in data set [1] is on record as “approximate pre-drug levels”. For the same molecule, the “concentration producing recovery of CAP conduction (effective/working concentration)” value in data set [1] (listed as Methyl carbamate (3)) is listed as “approximately 100 uM”. Further, the “concentration producing recovery of CAP conduction (effective/working concentration)” value in data set [1] (listed as carbamate (3)) came out at 100 µM. In addition, the “cortical potential (P1) after administration” value in data set [3] (FIG. 3, 1 hour after gastric tube administration, 1 week post injury) is “nearly normal cortical potential”. For the same molecule, in data set [3], the “effective dosage producing improvement in the electrophysiological record” value is on record as 0.37±0.2 mg/kg, the “Mean recovered EP (area beneath recovered EP normalized to pre-injury)” value is 78.0 and the tolerability of gavage result is listed as “uneventful”.

`CC(C)(C)OC(=O)Nc1ccncc1` [t-butyl carbamate (1), N-(4-Pyridyl) t-Butyl Carbamate]: in data set [1], the indication of toxicity entry is on record as “without any indication of toxicity”, the “CAP relative to pre-drug level” value is given as “increase in CAP above the pre-drug level” and the “concentration producing recovery of CAP conduction (effective/working concentration)” value stood at 1 µM. Further, in data set [1] (1 uM), the “enhancement of CAP conduction” value is recorded as “enhance CAP conduction significantly”. The “increase in recovery CAP amplitude” value in data set [1] (printed 'at uM', n=5, relative to pre-drug CAP) is 15.4±3.4%. The “recovery of EP compared to 4-AP” value in data set [3] (1 week post injury) is given as “significantly enhanced”. In addition, in data set [3], the failures to respond result is on record as “no failures to respond” and the tolerability of gavage entry is listed as “not tolerated”.
